We go through one compound from paper PMC9537572, “Elucidation of the binding mechanism of astragaloside IV derivative with human serum albumin and its cardiotoxicity in zebrafish embryos” (Frontiers in Pharmacology, 2022).

This data set has as its target HSA (Homo sapiens, UniProt P02768). In words: Site marker competitive experiments (warfarin, ibuprofen) by equilibrium dialysis. As to conditions: drug 0.476 mg/ml, n = 3, read-out: Plasma protein binding (converted). In kind it is in vitro ADME. As for the experimental part:
The site marker competitive experiments were performed using two classical site probes, warfarin and ibuprofen, which were selected as the markers of subdomain IIA (site I) and subdomain IIIA (site II) separately of HAS ([Ghuman et al., 2005]). The procedure was consistent with the method described in section 2.5, except that the concentrations of AGS IV and LS-102 were both fixed at 0.476 mg/ml, while the external dialysis solution was changed to contain the probe with a final concentration of 0, 0.06, 0.3, 1.2 mg/ml PBS solution. Briefly, the AGS IV/LS-102 HSA mixture (0.5 ml drug and 0.5 ml HSA) was separately incubated with three different concentrations of probe to evaluate the effects of warfarin or ibuprofen on drug-protein binding influence. Three replicates of each concentration were prepared. After equilibrium dialysis, the internal and external dialysates were analyzed by UHPLC-MS/MS.
(Equilibrium dialysis compares concentrations on both sides of a semipermeable membrane.)

Read-outs that look alike come from different tables or passages of the source.

HSA, sequence (P02768 25-609): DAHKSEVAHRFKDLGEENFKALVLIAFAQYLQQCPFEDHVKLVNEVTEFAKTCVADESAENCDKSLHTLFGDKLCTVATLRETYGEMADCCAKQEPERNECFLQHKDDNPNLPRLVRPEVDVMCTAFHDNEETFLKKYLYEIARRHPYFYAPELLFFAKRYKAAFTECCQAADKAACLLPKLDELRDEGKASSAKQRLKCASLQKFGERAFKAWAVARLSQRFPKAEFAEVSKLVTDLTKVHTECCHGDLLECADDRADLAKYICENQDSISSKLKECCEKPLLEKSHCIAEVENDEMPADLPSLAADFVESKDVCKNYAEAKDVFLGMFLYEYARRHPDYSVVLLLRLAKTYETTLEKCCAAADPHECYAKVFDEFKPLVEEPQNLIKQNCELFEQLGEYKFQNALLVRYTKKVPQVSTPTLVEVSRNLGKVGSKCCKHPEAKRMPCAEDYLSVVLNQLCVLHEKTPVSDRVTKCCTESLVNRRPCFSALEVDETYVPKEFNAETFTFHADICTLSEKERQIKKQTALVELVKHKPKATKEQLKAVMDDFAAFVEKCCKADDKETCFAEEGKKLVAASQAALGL

With `CC(C)(O)C1CCC(C)(C2C(O)CC3(C)C4CC(OC5OC(C(=O)O)C(O)C(O)C5O)C5C(C)(C)C(OC6OCC(O)C(O)C6O)CCC56CC46CCC23C)O1` (stereo not shown) [LS-102, astragalosidic acid], the fraction unbound at 72 h, 0.476 mg/ml by setting is: (with ibuprofen 0.06 mg/ml) 0.368; (with ibuprofen 0.3 mg/ml) 0.248; (with ibuprofen 1.2 mg/ml) 0.28; (with warfarin 0.06 mg/ml) 0.467; (with warfarin 0.3 mg/ml) 0.411; (with warfarin 1.2 mg/ml) 0.453. Where the note is “without site markers”, the fraction unbound at 72 h, 0.476 mg/ml is 0.331.
